Values after ≈ are worked out from the molar mass of the structure shown. Where two headings read alike, the source gives them in different places.
Legend:
[1] = system: Streptococcus pyogenes A 77; assay: MIC, standard strain 2; format: cell-based; conditions: read-out: Minimal Inhibitory Concentration(MIC)
Description: (§1) In order to illustrate antibiotic effectiveness of the compounds of the present invention, the minimal inhibitory concentrations (MIC's) of the representative compounds were determined against standard strains and compared with ceftazidime and cefpirome, which were used as control compounds.
(§2) The MIC values were taken by employing a two-fold dilution method: that is, two-fold serial dilutions of each of the test compounds were made from initial concentration of […]; each 1.5 ml of them was dispersed in 13.5 ml of Muller Hinton agar medium to adjust to […]; the standard test strain which had the concentration of 10^7 CFU/ml was inoculated by medium;and these were incubated at 37° C. for 18 hours.
(§3) The test used twenty kinds of standard test strains which induced urinary tract infections, respiratory organ infections, skin soft tissue infections, plasma infections, gastrointestinal infections, central nervous system infections, most of which produce β-lactamase. The standard test strains used are as follows:
2. Streptococcus pyogenes A 77

[2] = system: Streptococcus faecium 8b; assay: MIC, standard strain 3; format: cell-based; conditions: Enterococcus faecium, read-out: Minimal Inhibitory Concentration(MIC)
Description: as §1, §2, §3
3. Streptococcus faecium 8b

[3] = system: Escherichia coli DC 0; assay: MIC, standard strain 8; format: cell-based; conditions: DC0, E. coli DC 0, two-fold dilution, Muller Hinton agar, 10^7 CFU/ml, 37° C., 18 hours, read-out: Minimal Inhibitory Concentration(MIC)
Description: as §1, §2
(§4) The test used twenty kinds of standard test strains which induced urinary tract infections, respiratory organ infections, skin soft tissue infections, plasma infections, gastrointestinal infections, central nervous system infections, most of which produce β-lactamase.

[4] = system: Salmonella typhimurium; assay: MIC, standard strain 16; format: cell-based; conditions: Salmonella enterica, read-out: Minimal Inhibitory Concentration(MIC)
Description: as §1, §2, §3
16. Salmonella typhimurium

[5] = system: Escherichia coli 0 55; assay: MIC, standard strain 7; format: cell-based; conditions: 055, E. coli 0 55, two-fold dilution, Muller Hinton agar, 10^7 CFU/ml, 37° C., 18 hours, read-out: Minimal Inhibitory Concentration(MIC)
Description: as §1, §2, §4

[6] = system: Pseudomonas aeruginosa 1771; assay: MIC, standard strain 14; format: cell-based; conditions: read-out: Minimal Inhibitory Concentration(MIC)
Description: as §1, §2, §3
14. Pseudomonas aeruginosa 1771

[7] = system: Staphylococcus aureus 285; assay: MIC, standard strain 5; format: cell-based; conditions: read-out: Minimal Inhibitory Concentration(MIC)
Description: as §1, §2, §3
5. Staphylococcus aureus 285

[8] = system: Enterobacter cloacae P 99; assay: MIC, standard strain 19; format: cell-based; conditions: P99, 18 h, read-out: Minimal Inhibitory Concentration(MIC)
Description: as §1, §2, §3
19. Enterobacter cloacae P 99

[9] = system: Pseudomonas aeruginosa 1771M; assay: MIC, standard strain 15; format: cell-based; conditions: 18 h, read-out: Minimal Inhibitory Concentration(MIC)
Description: as §1, §2, §3
15. Pseudomonas aeruginosa 1771M

[10] = system: Escherichia coli DC 2; assay: MIC, standard strain 9; format: cell-based; conditions: DC2, E. coli DC 2, two-fold dilution, Muller Hinton agar, 10^7 CFU/ml, 37° C., 18 hours, read-out: Minimal Inhibitory Concentration(MIC)
Description: as §1, §2, §4

[11] = acute toxicity test; conditions: in vivo; acute toxicity, intravenous injection
[12] = system: Pseudomonas aeruginosa 1592 E; assay: MIC, standard strain 13; format: cell-based; conditions: read-out: Minimal Inhibitory Concentration(MIC)
Description: as §1, §2, §3
13. Pseudomonas aeruginosa 1592 E

[13] = system: Klebsiella aerogenes 1552 E; assay: MIC, standard strain 18; format: cell-based; conditions: read-out: Minimal Inhibitory Concentration(MIC)
Description: as §1, §2, §3
18. Klebsiella aerogenes 1552 E

[14] = system: MRSA(Yonsei Univ.); assay: MIC, clinically separated strains; format: cell-based
Description: as §2

[15] = system: Staphylococcus aureus 503; assay: MIC, standard strain 6; format: cell-based; conditions: read-out: Minimal Inhibitory Concentration(MIC)
Description: as §1, §2, §3
6. Staphylococcus aureus 503

[16] = system: Pseudomonas aeruginosa 9.027; assay: MIC, standard strain 12; format: cell-based; conditions: read-out: Minimal Inhibitory Concentration(MIC)
Description: as §1, §2, §3
12. Pseudomonas aeruginosa 9.027

[17] = system: Escherichia coli TEM; assay: MIC, standard strain 10; format: cell-based; conditions: 18 h, read-out: Minimal Inhibitory Concentration(MIC)
Description: as §1, §2, §4

[18] = system: Escherichia coli 1507 E; assay: MIC, standard strain 11; format: cell-based; conditions: read-out: Minimal Inhibitory Concentration(MIC)
Description: as §1, §2, §4

[19] = system: Enterobacter cloacae 1321 E; assay: MIC, standard strain 20; format: cell-based; conditions: read-out: Minimal Inhibitory Concentration(MIC)
Description: as §1, §2, §3
20. Enterobacter cloacae 1321 E

[20] = system: Streptococcus pyogenes A 308; assay: MIC, standard strain 1; format: cell-based; conditions: A308, 18 h, read-out: Minimal Inhibitory Concentration(MIC)
Description: as §1, §2, §3
1. Streptococcus pyogenes A 308

[21] = system: Staphylococcus aureus SG 511; assay: MIC, standard strain 4; format: cell-based; conditions: SG511, 18 h, read-out: Minimal Inhibitory Concentration(MIC)
Description: as §1, §2, §3
4. Staphylococcus aureus SG 511

[22] = system: Staphylococcus; conditions: compared with DQ-2556; cited from earlier work
[23] = system: Pseudomonas; conditions: compared with DQ-2556 or ceftazidime; cited from earlier work

For `CO/N=C(\C(=O)N[C@@H]1C(=O)N2C(C(=O)[O-])=C(C[n+]3ccc(C(N)=S)c4c3CCC4)CS[C@H]12)c1csc(N)n1` [Example 5, 7-β-[(Z)-2-(2-aminothiazol-4-yl)-2-methoxyiminoacetamido]-3-[(2,3-cyclopenteno-4-thiocarbamoyl-1-pyridinium)methyl]-3-cephem-4-carboxylate], the MIC ([1]; A77, S. pyogenes A 77, two-fold dilution, Muller Hinton agar, 10^7 CFU/ml, 37° C., 18 hours) was 2 µg/mL (≈ 3.49 µM), the MIC ([2]; S. faecium 8b, two-fold dilution, Muller Hinton agar, 10^7 CFU/ml, 37° C., 18 hours) was 12500 µg/mL (≈ 21800 µM) and the MIC [3] was 98 µg/mL (≈ 171 µM). It also gave an MIC ([4]; S. typhimurium, two-fold dilution, Muller Hinton agar, 10^7 CFU/ml, 37° C., 18 hours) of 49 µg/mL (≈ 85.4 µM), an MIC [5] of 49 µg/mL (≈ 85.4 µM) and an MIC ([6]; Pseudomonas aeruginosa, P. aeruginosa 1771, two-fold dilution, Muller Hinton agar, 10^7 CFU/ml, 37° C., 18 hours) of 1560 µg/mL (≈ 2720 µM). For the same molecule, the MIC ([7]; Staphylococcus aureus, S. aureus 285, two-fold dilution, Muller Hinton agar, 10^7 CFU/ml, 37° C., 18 hours) was 1560 µg/mL (≈ 2720 µM), the MIC [8] was 6250 µg/mL (≈ 10900 µM) and the MIC [9] was 391 µg/mL (≈ 682 µM). It also gave an MIC [10] of 25 µg/mL (≈ 43.6 µM), an LD50 [11] of over 3000 mg/kg and an MIC ([12]; P. aeruginosa 1592 E, two-fold dilution, Muller Hinton agar, 10^7 CFU/ml, 37° C., 18 hours) of 3120 µg/mL (≈ 5450 µM). For the same molecule, the MIC ([13]; K. aerogenes 1552 E, two-fold dilution, Muller Hinton agar, 10^7 CFU/ml, 37° C., 18 hours) was 49 µg/mL (≈ 85.4 µM), the “antibiotic activities against MRSA(Yonsei Univ.), in words” value [14] was “unexpectedly potent antibiotic activities” and the MIC ([15]; Staphylococcus aureus, S. aureus 503, two-fold dilution, Muller Hinton agar, 10^7 CFU/ml, 37° C., 18 hours) was 391 µg/mL (≈ 682 µM). For the same molecule, the MIC ([16]; Pseudomonas aeruginosa, P. aeruginosa 9.027, two-fold dilution, Muller Hinton agar, 10^7 CFU/ml, 37° C., 18 hours) was 6250 µg/mL (≈ 10900 µM), the MIC [17] was 98 µg/mL (≈ 171 µM) and the MIC ([18]; E. coli 1507 E, two-fold dilution, Muller Hinton agar, 10^7 CFU/ml, 37° C., 18 hours) was 98 µg/mL (≈ 171 µM). For the same molecule, the MIC ([19]; E. cloacae 1321 E, two-fold dilution, Muller Hinton agar, 10^7 CFU/ml, 37° C., 18 hours) was 13 µg/mL (≈ 22.7 µM), the MIC [20] was 4 µg/mL (≈ 6.97 µM) and the MIC [21] was 781 µg/mL (≈ 1360 µM).

`CC(C)(O/N=C(\C(=O)N[C@@H]1C(=O)N2C(C(=O)[O-])=C(C[n+]3ccccc3)CS[C@H]12)c1csc(N)n1)C(=O)O` [ceftazidime, reference compound] showed an MIC ([1]; A77, 18 h) of 49 µg/mL (≈ 89.6 µM), an MIC ([2]; 8B, 18 h) of 100000 µg/mL (≈ 183000 µM) and an MIC [3] of 98 µg/mL (≈ 179 µM). It also gave an MIC ([4]; TYPHIMURIUM, 18 h) of 195 µg/mL (≈ 357 µM), an MIC [5] of 98 µg/mL (≈ 179 µM) and an MIC ([6]; Pseudomonas aeruginosa, 1771, 18 h) of 391 µg/mL (≈ 715 µM). For the same molecule, the MIC ([7]; Staphylococcus aureus, 285, 18 h) was 12500 µg/mL (≈ 22900 µM), the MIC [8] was 100000 µg/mL (≈ 183000 µM) and the MIC [9] was 98 µg/mL (≈ 179 µM). The MIC [10] was 98 µg/mL (≈ 179 µM), the MIC ([12]; 1592E, 18 h) was 781 µg/mL (≈ 1430 µM) and the “activity against Staphylococcus, in words” value [22] was “relatively low activity against Staphylococcus”. The MIC ([13]; 1552E, 18 h) was 98 µg/mL (≈ 179 µM), the MIC ([15]; Staphylococcus aureus, 503, 18 h) was 98 µg/mL (≈ 179 µM) and the MIC ([16]; Pseudomonas aeruginosa, 9.027, 18 h) was 3120 µg/mL (≈ 5720 µM). The MIC [17] was 195 µg/mL (≈ 357 µM), the MIC ([18]; 1507E, 18 h) was 195 µg/mL (≈ 357 µM) and the “activity against Pseudomonas, in words” value [23] was “higher activity against Pseudomonas”. The MIC ([19]; 1321E, 18 h) was 25 µg/mL (≈ 45.7 µM), the MIC [20] was 98 µg/mL (≈ 179 µM) and the MIC [21] was 12500 µg/mL (≈ 22900 µM).

From patent US5593985A, “Cephalosporin compounds” (priority 1994, dated 1997)
